The source of these data is paper PMC3885546, “Structural Determinants of the 5′-Methylthioinosine Specificity of Plasmodium Purine Nucleoside Phosphorylase” (PLoS ONE, 2014).

The Km is the concentration of substrate that gives half-maximal velocity. For orientation: kcat means the maximal rate divided by the concentration of active sites.

One experiment relates to TgPNP. The settings on record: cited from earlier work; for Km / kcat: substrate = label.
A further experiment has as its target T1, PfPNP (wild type) (Plasmodium falciparum, UniProt Q8I3X4).
T1 construct: made in house; host or cells: Escherichia coli Top 10
T1 sequence (Q8I3X4 1-245): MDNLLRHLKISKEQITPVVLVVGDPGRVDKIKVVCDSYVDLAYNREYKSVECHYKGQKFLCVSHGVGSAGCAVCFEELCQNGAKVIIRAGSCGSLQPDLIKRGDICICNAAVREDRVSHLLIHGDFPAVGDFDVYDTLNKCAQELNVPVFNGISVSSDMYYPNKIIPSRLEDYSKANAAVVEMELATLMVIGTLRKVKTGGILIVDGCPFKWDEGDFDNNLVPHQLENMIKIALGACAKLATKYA
The experiment can be described thus: Substrate kinetics, xanthine oxidase coupled phosphorolysis assay. The experiment is classed as biochemical. On the procedure:
(§1) Kinetic assays were completed in 50 mM KH2PO4 at pH 7.4 measuring phosphorylysis of inosine or MTI by PNP in a coupled reaction with 60 milliunits/ml xanthine oxidase to convert hypoxanthine to uric acid. Formation of uric acid was measured at 293 nm wavelength (E293 = 12.9 mM^−1 cm^−1), [20]. In cases where activity for MTI was low, increased protein concentration (10 µg/ml) was used to check enzyme function. Assays were performed with excess substrate in the presence of inhibitors. Inhibition studies measured both initial (Ki) and slow onset inhibition (Ki*) for inhibitors. The initial onset inhibition was analyzed by using the following equation: ν ο = (k cat×S)/(K m(1+I/Ki)+S), ν ο is the steady state rate, k cat catalytic rate, S is substrate concentration, Km is Michealis constant for inosine, I is inhibitor concentration, and Ki is the equilibrium dissociation constant.

A further experiment concerns the target T2, PfPNP Val73Ile/Tyr160Phe (Plasmodium falciparum, UniProt Q8I3X4, V73I/Y160F).
T2 construct: made in house; host or cells: Escherichia coli Top 10
T2 sequence (Q8I3X4 1-245 V73I/Y160F): T1 sequence (Q8I3X4 1-245) with V73I, Y160F
In words: Substrate kinetics, coupled assay. The format is biochemical. The following applies: for Km / kcat: substrate = label. On the procedure:
as §1

A further experiment has as its target T3, PfPNP Val66Phe (Plasmodium falciparum, UniProt Q8I3X4, V66F).
T3 construct: made in house; host or cells: Escherichia coli Top 10
T3 sequence (Q8I3X4 1-245 V66F): T1 sequence (Q8I3X4 1-245) with V66F
In words: Substrate kinetics, coupled assay. The experiment is classed as biochemical. Also on record: key to Km / kcat / kcat/Km: (-): Activity not detected under the experimental conditions. The settings on record: for Km / kcat / kcat/Km: substrate = label. On the procedure: as §1

The next experiment concerns the target T4, PfPNP Asp206Ala (Plasmodium falciparum, UniProt Q8I3X4, D206A).
T4 construct: made in house; host or cells: Escherichia coli Top 10
T4 sequence (Q8I3X4 1-245 D206A): T1 sequence (Q8I3X4 1-245) with D206A
In words: Substrate kinetics, coupled assay. The experiment is classed as biochemical. Also on record: key: (-): Activity not detected under the experimental conditions. The settings on record: substrate = label. On the procedure:
as §1

A further experiment concerns the target T5, PfPNP Met183Ala (Plasmodium falciparum, UniProt Q8I3X4, M183A).
T5 construct: made in house; host or cells: Escherichia coli Top 10
T5 sequence (Q8I3X4 1-245 M183A): T1 sequence (Q8I3X4 1-245) with M183A
The experiment can be described thus: Substrate kinetics, coupled assay. The experiment is classed as biochemical. More on the design: key: (-): Activity not detected under the experimental conditions. The settings on record: substrate = label. As to the method:
as §1

The target in another experiment is T6, PfPNP Val73Phe (Plasmodium falciparum, UniProt Q8I3X4, V73F).
T6 construct: made in house; host or cells: Escherichia coli Top 10
T6 sequence (Q8I3X4 1-245 V73F): T1 sequence (Q8I3X4 1-245) with V73F
The experiment can be described thus: Substrate kinetics, coupled assay. The format is biochemical. More on the design: key: (-): Activity not detected under the experimental conditions. The following applies: substrate = label. On the procedure: as §1

The target of another experiment is T7, PfPNP Arg45Ala (Plasmodium falciparum, UniProt Q8I3X4, R45A).
T7 construct: made in house; host or cells: Escherichia coli Top 10
T7 sequence (Q8I3X4 1-245 R45A): T1 sequence (Q8I3X4 1-245) with R45A
In words: Substrate kinetics, coupled assay. The experiment is classed as biochemical. The settings on record: substrate = label. More on the design: key: (-): Activity not detected under the experimental conditions. On the procedure: as §1

Changes are numbered by the printed parent chain. Like-named read-outs stand apart in the source and are kept apart here.

5′-methylthioinosine: the “efficiency for MTI when compared to inosine” value with TgPNP was less than 0.5%. Moreover, the Km with TgPNP (ref Chaudhary, et al. [18]) was 31 ± 3 µM; on PfPNP (wild type) (substrate = label, 50 mM KH2PO4 pH 7.4, mean ± SD), 8.8 ± 0.2 µM; at PfPNP Val73Ile/Tyr160Phe, 60 ± 33 µM; at PfPNP Val66Phe it was “(-)”; at PfPNP Asp206Ala it was “(-)”; at PfPNP Met183Ala, “(-)”. Also, the Michaelis-Menten constant (Km) entry on PfPNP Val73Phe and on PfPNP Arg45Ala was “(-)” each time. For the same compound, the kcat is 0.03 ± 0.00 s⁻¹ with TgPNP (ref Chaudhary, et al. [18]); 0.83 ± 0.03 s⁻¹ on PfPNP (wild type) (substrate = label); 0.28 ± 0.04 s⁻¹ on PfPNP Val73Ile/Tyr160Phe; “(-)” at PfPNP Val66Phe; “(-)” on PfPNP Asp206Ala; “(-)” on PfPNP Met183Ala. Also, the catalytic constant (kcat) entry at PfPNP Val73Phe and at PfPNP Arg45Ala was “(-)” each time. Further, the kcat/Km result on PfPNP Val66Phe was “(-)”; at PfPNP Val66Phe (listed as MTI), “no detectable activity”; at PfPNP Asp206Ala, “(-)”; at PfPNP Met183Ala, “(-)”; at PfPNP Met183Ala (listed as MTI), “no detectable activity”; on PfPNP Val73Phe, “(-)”. For the same compound, the kcat/Km entry at PfPNP Val73Phe (listed as MTI) is “no activity”; on PfPNP Arg45Ala it was “(-)”.
Take `OC[C@H]1O[C@@H](n2cnc3c(O)ncnc32)[C@H](O)[C@@H]1O` [Inosine, inosine]: the “Ino/MTI kcat/Km Ratio” value was 230 in the experiment on TgPNP (ref Chaudhary, et al. [18]); 1.6 at PfPNP (wild type); 35 at PfPNP Val73Ile/Tyr160Phe. Further, the Km was 13 ± 1 µM in the experiment with TgPNP (ref Chaudhary, et al. [18]); 3.6 ± 1.3 µM at PfPNP Val73Ile/Tyr160Phe; 1500 ± 410 µM on PfPNP Val66Phe (read-out: Km); 63 ± 6 µM at PfPNP Asp206Ala (read-out: Km); 260 ± 64 µM on PfPNP Met183Ala (read-out: Km); “(-)” on PfPNP Val73Phe. In addition, at PfPNP Arg45Ala (read-out: Km), the Km was 470 ± 291 µM. Also, the kcat was 2.6 ± 0.0 s⁻¹ with TgPNP (ref Chaudhary, et al. [18]); 0.59 ± 0.13 s⁻¹ on PfPNP Val73Ile/Tyr160Phe; 5.7 ± 3.4 s⁻¹ on PfPNP Val66Phe; 0.04 ± 0.01 s⁻¹ on PfPNP Asp206Ala; 0.4 ± 0.3 s⁻¹ at PfPNP Met183Ala; “(-)” on PfPNP Val73Phe. For the same compound, the kcat at PfPNP Arg45Ala was found to be 0.05 ± 0.03 s⁻¹. At PfPNP Val66Phe, the “Km greater than for wildtype PfPNP” value is on record as approximately 100 fold. Besides, the kcat/Km result at PfPNP Val73Phe was “(-)”.
